# In PubChem BioAssay (NCI):
#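 Exposure lasted 48 hours, with cells grown in 96-well plates and compounds tested at five concentrations. TGI: concentration producing complete growth inhibition.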
# How the values were obtained:
# Test in all cases: inhibition of tumour cell growth, NCI panel, 48 h
# SF-539 CNS = tested on: SF-539 CNS
# MALME-3M melanoma = tested on: MALME-3M melanoma
# CAKI-1 renal = tested on: CAKI-1 renal
# UACC-257 melanoma = tested on: UACC-257 melanoma
# A498 renal = tested on: A498 renal
# EKVX NSCLC = tested on: EKVX NSCLC
# MOLT-4 leukemia = tested on: MOLT-4 leukemia
# K-562 leukemia = tested on: K-562 leukemia
# SK-OV-3 ovarian = tested on: SK-OV-3 ovarian
# DLD-1 colon = tested on: DLD-1 colon
# IGROV1 ovarian = tested on: IGROV1 ovarian
# KM20L2 colon = tested on: KM20L2 colon
# OVCAR-5 ovarian = tested on: OVCAR-5 ovarian
# SK-MEL-28 melanoma = tested on: SK-MEL-28 melanoma
# SK-MEL-2 melanoma = tested on: SK-MEL-2 melanoma
# SN12C renal = tested on: SN12C renal
# DMS 114 small cell lung = tested on: DMS 114 small cell lung
# LXFL 529 NSCLC = tested on: LXFL 529 NSCLC
# 786-0 renal = tested on: 786-0 renal
# HL-60(TB) leukemia = tested on: HL-60(TB) leukemia
# KM12 colon = tested on: KM12 colon
# M19-MEL melanoma = tested on: M19-MEL melanoma
# CCRF-CEM leukemia = tested on: CCRF-CEM leukemia
# NCI-H460 lung = tested on: NCI-H460 lung
# HCC-2998 colon = tested on: HCC-2998 colon
# HOP-92 NSCLC = tested on: HOP-92 NSCLC
# M14 melanoma = tested on: M14 melanoma
# OVCAR-4 ovarian = tested on: OVCAR-4 ovarian
# SR leukemia = tested on: SR leukemia
# SF-268 CNS = tested on: SF-268 CNS
# OVCAR-3 ovarian = tested on: OVCAR-3 ovarian
# SK-MEL-5 melanoma = tested on: SK-MEL-5 melanoma
# SW-620 colon = tested on: SW-620 colon
# UACC-62 melanoma = tested on: UACC-62 melanoma
# SNB-19 CNS = tested on: SNB-19 CNS
# HT29 colon = tested on: HT29 colon
# LOX IMVI melanoma = tested on: LOX IMVI melanoma
# HCT-116 colon = tested on: HCT-116 colon
# SF-295 CNS = tested on: SF-295 CNS
# NCI-H522 lung = tested on: NCI-H522 lung
# NCI-H226 lung = tested on: NCI-H226 lung
# ACHN renal = tested on: ACHN renal
# SNB-78 CNS = tested on: SNB-78 CNS
# OVCAR-8 ovarian = tested on: OVCAR-8 ovarian
# RPMI-8226 leukemia = tested on: RPMI-8226 leukemia
# HCT-15 colon = tested on: HCT-15 colon
# HOP-62 NSCLC = tested on: HOP-62 NSCLC
# A549 NSCLC = tested on: A549 NSCLC
# DMS 273 small cell lung = tested on: DMS 273 small cell lung
# TK-10 renal = tested on: TK-10 renal
# NCI-H23 lung = tested on: NCI-H23 lung
# UO-31 renal = tested on: UO-31 renal
# COLO 205 colon = tested on: COLO 205 colon
smiles,measurement,setting,value
O=C(c1nc2ccc(Cl)cc2[nH]c1=O)C(O)c1ccccc1 (stereo not drawn),TGI,SF-539 CNS,> 100 µM
same,TGI,MALME-3M melanoma,> 100 µM
same,TGI,CAKI-1 renal,> 100 µM
same,TGI,UACC-257 melanoma,> 100 µM
same,TGI,A498 renal,> 100 µM
same,TGI,EKVX NSCLC,> 100 µM
same,TGI,MOLT-4 leukemia,> 100 µM
same,TGI,K-562 leukemia,> 100 µM
same,TGI,SK-OV-3 ovarian,> 100 µM
same,TGI,DLD-1 colon,> 100 µM
same,TGI,IGROV1 ovarian,> 100 µM
same,TGI,KM20L2 colon,> 100 µM
same,TGI,OVCAR-5 ovarian,> 100 µM
same,TGI,SK-MEL-28 melanoma,> 100 µM
same,TGI,SK-MEL-2 melanoma,> 100 µM
same,TGI,SN12C renal,> 100 µM
same,TGI,DMS 114 small cell lung,> 100 µM
same,TGI,LXFL 529 NSCLC,> 100 µM
same,TGI,786-0 renal,> 100 µM
same,TGI,HL-60(TB) leukemia,68.8 µM
same,TGI,KM12 colon,> 100 µM
same,TGI,M19-MEL melanoma,> 100 µM
same,TGI,CCRF-CEM leukemia,25.4 µM
same,TGI,NCI-H460 lung,> 100 µM
same,TGI,HCC-2998 colon,> 100 µM
same,TGI,HOP-92 NSCLC,> 100 µM
same,TGI,M14 melanoma,> 100 µM
same,TGI,OVCAR-4 ovarian,> 100 µM
same,TGI,SR leukemia,> 100 µM
same,TGI,SF-268 CNS,> 100 µM
same,TGI,OVCAR-3 ovarian,> 100 µM
same,TGI,SK-MEL-5 melanoma,> 100 µM
same,TGI,SW-620 colon,> 100 µM
same,TGI,UACC-62 melanoma,> 100 µM
same,TGI,SNB-19 CNS,> 100 µM
same,TGI,HT29 colon,> 100 µM
same,TGI,LOX IMVI melanoma,> 100 µM
same,TGI,HCT-116 colon,> 100 µM
same,TGI,SF-295 CNS,> 100 µM
same,TGI,NCI-H522 lung,> 100 µM
same,TGI,NCI-H226 lung,> 100 µM
same,TGI,ACHN renal,> 100 µM
same,TGI,SNB-78 CNS,> 100 µM
same,TGI,OVCAR-8 ovarian,> 100 µM
same,TGI,RPMI-8226 leukemia,> 100 µM
same,TGI,HCT-15 colon,> 100 µM
same,TGI,HOP-62 NSCLC,> 100 µM
same,TGI,A549 NSCLC,> 100 µM
same,TGI,DMS 273 small cell lung,> 100 µM
same,TGI,TK-10 renal,> 100 µM
same,TGI,NCI-H23 lung,> 100 µM
same,TGI,UO-31 renal,> 100 µM
same,TGI,COLO 205 colon,> 100 µM
